Results: ChEMBL document CHEMBL4627257, “Targeting the DNA damage response (DDR) by natural compounds” (Bioorg Med Chem, 2020)
Calls of active or inactive are those of the source. The rule behind the calls is not given here.

Experiments:
[1] = tested on: SU.86.86; experiment: Induction of DNA damage in human SU8686 cells assessed as increase in gammaH2AX nuclear foci under basal condition at IC50 by fluorometry method; format: functional, cell-based
[2] = tested on: SU.86.86; experiment: Induction of DNA damage in human SU8686 cells assessed as tail DNA formation at IC50 by alkaline Comet assay; format: functional, cell-based
[3] = tested on: SU.86.86; experiment: Induction of DNA damage in human SU8686 cells assessed as increase in gammaH2AX phosphorylation at […] at cytotoxic IC50 in presence of 0.3 uM doxorubicin by fluorometry method; format: functional
[4] = tested on: SU.86.86; experiment: Induction of DNA damage in human SU8686 cells assessed as increase in gammaH2AX phosphorylation at […] at cytotoxic IC50 incubated for 24 hrs by fluorometry method; format: functional
[5] = tested on: SU.86.86; experiment: Induction of DNA damage in human SU8686 cells assessed as increase gammaH2AX protein level at IC50 for 24 hrs in presence of 0.3 uM doxorubicin by western blot analysis; format: functional, cell-based
[6] = tested on: SU.86.86; experiment: Induction of DNA damage in human SU8686 cells assessed as increase gammaH2AX protein level at IC50 for 24 hrs in presence of 5 uM cisplatin by western blot analysis; format: functional, cell-based
[7] = tested on: SU.86.86; experiment: Induction of DNA damage in human SU8686 cells assessed as increase in gammaH2AX phosphorylation at […] at cytotoxic IC50 in presence of 5 uM cisplatin by fluorometry method; format: functional
[8] = tested on: BXPC-3; experiment: Cytotoxicity against human BxPC3 cells assessed as cell viability after 72 hrs incubated with resazurin sodium salt by Alamar blue assay; format: functional
[9] = tested on: SU.86.86; experiment: Cytotoxicity against human SU8686 cells assessed as cell viability after 72 hrs incubated with resazurin sodium salt by Alamar blue assay; format: functional

Row | SMILES | Activity [3] [%] | Activity [7] [%] | further results
1 | CC(C)=CCC/C(C)=C/CC/C(C)=C/CC/C(C)=C/CC/C(C)=C/CC/C(C)=C/Cc1cc(O)ccc1O | – | – | Activity [1]: Active; Activity [2]: Active
2 | CN1C(=O)NC(CCCNC(=O)c2cc(Br)c(Br)n2C)C1=O (stereo unspecified) [MIDPACAMIDE] | >20 | – | –
3 | O=c1[nH]c2ccccc2c(-c2ccccc2)c1O | >20 | – | –
4 | COC1=C(Br)[C@H](O)[C@@]2(C=C1Br)CC(C(=O)NCCCCNC(=O)C1=NO[C@]3(C=C(Br)C(OC)=C(Br)[C@@H]3O)C1)=NO2 [AEROTHIONIN] | >20 | – | –
5 | CC(C)=CCc1cc(C(=O)/C=C/c2ccc(O)cc2)c(O)cc1O [BROUSSOCHALCONE B] | >20 | – | Activity [4]: >30%
6 | Cc1cc(O)cc2c1Oc1cc(O)c(O)c(C)c1C(=O)O2 | – | – | Activity [4]: >30%
7 | COC(=O)C[C@@H]1Cc2cc3c(-c4c(OC)cc(O)c5c(O)c6c(cc45)C[C@@H](CC(=O)OC)OC6=O)c(OC)cc(O)c3c(O)c2C(=O)O1 | – | – | Activity [1]: Active; Activity [5]: Active; Activity [2]: Active; Activity [6]: Active
8 | COc1cc(O)c2c(c1)C(=O)C1=C(C2=O)[C@H](O)[C@@H](O)[C@@](C)(O)[C@@H]1O [ALTERSOLANOL A] | >20 | >20 | –
9 | COc1cc(O)c2c(=O)oc3cc(O)cc(C)c3c2c1 | >20 | – | –
10 | CC1=CCC[C@H]2[C@](C)(CC3=CC(=O)C=CC3=O)[C@@H](C)CC[C@]12C [AVARONE] | >20 | >20 | –
11 | O=C1C[C@H](O)[C@H]2c3ccc(O)c4c3[C@H](c3ccc(O)c1c32)[C@@H](O)CC4=O | – | >20 | –
12 | Oc1c(Br)cc(Br)cc1Oc1ccc(Br)cc1Br | >20 | >20 | –
13 | CC[C@H](C)[C@H]1C(=O)N[C@@H](Cc2ccc(OCC=C(C)C)cc2)C(=O)N(C)[C@@H](C)C(=O)O[C@@H](Cc2ccccc2)C(=O)N2CCC[C@H]2C(=O)N[C@H](C(=O)O)C(=O)N1C | >20 | – | –
14 | CC(=O)c1c(O)cc(O)cc1C[C@@H]1Cc2cc(O)cc(O)c2C(=O)O1 | – | – | Activity [4]: >30%
15 | C[C@H]1CCC/C=C\C(=O)Cc2cc(O)cc(O)c2C(=O)O1 | – | – | Activity [4]: >30%
16 | COC(=O)[C@@]12Oc3ccc(-c4ccc5c(c4O)C(=O)C4=C(O)C[C@H](C)[C@H](O)[C@]4(C(=O)OC)O5)c(O)c3C(=O)C1=C(O)C[C@H](C)[C@H]2O | >20 | >20 | Activity [1]: Active; Activity [4]: >30%; Activity [2]: Active; Activity [6]: Active; Activity [8]: 2.5 µM; Activity [9]: 3 µM
17 | CCCc1cc(OC)cc(O)c1C(=O)Oc1c(OC)cc(CCC)c(C(=O)O)c1O | – | >20 | –
18 | C/C=C1\NC(=O)[C@H](Cc2ccccc2)NC(=O)[C@@H](C(C)C)NC(=O)[C@H]([C@@H](C)CC)NC(=O)[C@H](NC(=O)[C@H](NC(=O)[C@H](CCCN)NC(=O)[C@H]2CCCN2C(=O)[C@H](NC(=O)[C@@H](NC(=O)[C@H](NC(=O)[C@H](NC(=O)CCCC(C)C)C(C)C)[C@@H](C)O)C(C)C)C(C)C)[C@@H](C)CC)C(C)OC(=O)[C@H](C(C)C)NC1=O (stereo partly specified) | – | >20 | –
19 | Cc1cc(O)cc2c1Oc1cc(O)cc(C)c1C(=O)O2 | >20 | >20 | –
20 | COc1cc(C[C@H]2COC(=O)[C@@H]2Cc2ccc(O)c(OC)c2)ccc1O [MATAIRESINOL] | >20 | – | –
21 | CC(C)[C@H]1OC(=O)[C@H](Cc2ccccc2)N(C)C(=O)[C@@H](C(C)C)OC(=O)[C@H](Cc2ccccc2)N(C)C(=O)[C@@H](C(C)C)OC(=O)[C@H](Cc2ccccc2)N(C)C1=O | – | – | Activity [1]: Active; Activity [2]: Active; Activity [6]: Active
22 | CCCCCC[C@H](C)/C=C(C)/C=C/C(=O)N[C@@H]1C[C@@]2(O[C@@H]1O)[C@@H]1O[C@@H]1C(=O)[C@@H]1O[C@@H]12 | >20 | – | –
23 | COC(C)CCOC(=O)c1cc(O)c(O)c(O)c1 (stereo unspecified) | – | – | Activity [4]: >30%
24 | C=C1CCC[C@H]2[C@](C)(CC3=C(O)C(=O)C=C(N[C@@H](CO)C(=O)O)C3=O)[C@@H](C)CC[C@]12C | – | – | Activity [4]: >30%
25 | Oc1cccc2c1[nH]c1c(C3=C[C@@]4(O)CC/C=C\CCCCN5CC[C@@H]3[C@]3(C[C@@H]6/C=C\CCCCN6[C@H]34)C5)nccc12 | >20 | >20 | –
26 | Cc1cc(O)c2c(c1)C(=O)c1c(c(O)cc(O)c1-c1c(O)cc(O)c3c1C(=O)c1cc(C)cc(O)c1C3=O)C2=O [SKYRIN] | >20 | – | –
27 | COc1cc(O)c2c(c1)C(=O)c1cc(C)c(O)cc1C2=O [MACROSPORIN] | >20 | – | –
